Holding throughout (format): biochemical
In experiment [1] the target is Collagenase produced by normal human leukocytes or by normal human skin fibroblasts. Put plainly: in vitro collagenase inhibition assay (14C-acetylated collagen hydrolysis). As to conditions: pH 7.4, 35° C., one to five hours. The protocol:
The compound N-[[(5-chloro-2-benzothiazolyl)thio]-phenylacetyl]-L-cysteine is tested for collagenase inhibition in an in vitro assay based on the procedure described by A. Sellers and J.J. Reynolds, Biochem. J., 167 (1977) pp. 353-60.
Collagenase produced by normal human leukocytes or by normal human skin fibroblasts in cell cultures is purified by adsorption onto a collagen Sepharose 4B column. Prior to use in the assay, the zymogen is activated with trypsin, while the trypsin in turn, is inactivated with an excess of soybean trypsin inhibitor.
According to the assay procedure, microfuge tubes are prepared containing a total of about 150 μl. of solution containing: 25 μl. collagen (^14 C-acetylated collagen--2 mg./ml in 0.01% acetic acid); 25 μl. of 0.15 M tris/0.015 M CaCl2, pH 7.4; 75 μl. collagenase in tris buffer (0.05 M tris/0.005 M CaCl2, pH 7.4); and 25 μl. of collagenase inhibitor in tris buffer. Samples and controls are incubated at 35° C. for one to five hours depending upon potency of the enzyme. At the end of the reaction period, the tubes are spun down in a Beckman Microfuge. A 25 μl. aliquot of each tube is then assayed in a scintillation counter. Since native collagen forms insoluble fibrils under these conditions, radioactivity detected in the supernate is a measure of collagen hydrolysis. […]

The target in experiment [2] is T1, human leukocyte elastase (Homo sapiens, UniProt P08246).
T1 construct: A crude elastase preparation is made by homogenizing human leukocyte granules; from tissue; host or cells: human leukocyte granules (homogenized, supernatant dialyzed; crude preparation)
T1 sequence (P08246 30-247 limits assumed): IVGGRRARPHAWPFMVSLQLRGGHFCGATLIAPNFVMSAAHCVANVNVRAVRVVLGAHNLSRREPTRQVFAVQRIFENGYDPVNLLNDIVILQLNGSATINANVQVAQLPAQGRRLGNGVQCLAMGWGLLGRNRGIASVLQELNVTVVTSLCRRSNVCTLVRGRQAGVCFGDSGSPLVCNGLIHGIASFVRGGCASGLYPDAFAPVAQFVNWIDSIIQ
Put plainly: human elastase inhibition in vitro assay, Method 1 (succinyl-L-alanyl-L-alanyl-L-alanyl-p-nitroanilide substrate). The protocol:
(§1) The compound N-[[5-chloro-2-benzothiazolyl)thio]-phenylacetyl]-L-cysteine is tested for human elastase inhibition in an in vitro assay which is carried out as follows:
(§2) A crude elastase preparation is made by homogenizing human leukocyte granules [prepared according to the method of R. J. Baryk and J. Travis, Biochemistry, 15, (4), 837 (1976)], spinning and dialyzing the supernates against cold 0.05 M trisHCl/0.05 M Na Cl at a pH 8.0.
(§3) This elastase preparation is used in two assay methods to test for elastase inhibition.
400 μl of the elastase preparation, 10 μl (0.0625 mg) of succinyl-L-alanyl-L-alanyl-L-alanyl-p-nitroanilide (the enzyme substrate), 207 μl of buffer and varying amounts of the elastase inhibitor under testing are incubated at 37° C. for 19 hours. The hydrolysis is measured by use of high pressure liquid chromatography (HPLC) or by the spectrophotometric measurement of the release of p-nitroaniline at a wavelength of 410 nm.

For experiment [3], the target named is T1, human leukocyte elastase. Put plainly: human elastase inhibition in vitro assay, Method 2 (elastin-Congo red complex). As to conditions: 20 μg of compound; 37° C., 18 hours; Standard (complete hydrolysis by hog pancreatic elastase) 1.0; No Inhibitor 0.104. The protocol: as §1, §2, §3
In this method, the substrate used is an elastin-Congo red complex. Hydrolysis of this substrate by elastase releases Congo red, which is assayed by HPLC. The assay system also contains buffer and either 20 μg of the compound of Example 1, or no compound. The system is incubated at 37° C. for 18 hours. The standard sample represents the complete hydrolysis of the elastin-Congo red complex by hog pancreatic elastase.

As a reminder, the IC50 is the concentration that inhibits the measured activity by half. Turning to `O=C(N[C@@H](CS)C(=O)O)C(Sc1nc2cc(Cl)ccc2s1)c1ccccc1` (stereo partly drawn) [Example 1, N-[[(5-chloro-2-benzothiazolyl)thio]phenylacetyl]-L-cysteine], the IC50 in experiment [1] (Experiment 1: Collagen I as substrate) is 5.7 µM; in experiment [1] (Experiment 2: Collagen II as substrate) it was 12.5 µM; at human leukocyte elastase [2] (37° C., 19 hours, HPLC or 410 nm), 4.78 µM. The “inhibitory effect on the enzymatic activity of human leukocyte elastase (in words)” value against human leukocyte elastase [2] (conclusion from Methods 1 and 2) is listed as “strong inhibitory effect”. The “Relative Release of Congo Red” value at human leukocyte elastase [3] worked out at 0.000.

(Values after patent publication US4609667A, “Inhibitor of mammalian collagenase and elastase” (American Home Products Corporation, priority 1985, dated 1986).)
